The experiment concerns the target T1, rat mGluR5 (Rattus norvegicus, UniProt P31424).
T1 construct: expressed in transfected cells; host or cells: human embryonic kidney (HEK) cells
The experiment is described as follows: potentiation of mGluR5 response to glutamate, Ca2+ fluorescence (FDSS) in HEK cells transfected with rat mGluR5. It is filed as cell-based. How it is done: Human embryonic kidney (HEK) cells transfected with rat mGluR5 were plated in clear bottom assay plates for assay in a Functional Drug Screening System (FDSS). The cells were loaded with a Ca^2+-sensitive fluorescent dye (e.g., Fluo-4), and the plates were washed and placed in the FDSS instrument. After establishment of a fluorescence baseline for twelve seconds, the compounds of the present invention were added to the cells, and the response in cells was measured. Five minutes later, an mGluR5 agonist (e.g., glutamate, 3,5-dihydroxyphenylglycine, or quisqualate) was added to the cells, and the response of the cells was measured. Potentiation of the agonist response of mGluR5 by the compounds in the present invention was observed as an increase in response to non-maximal concentrations of agonist (here, glutamate) in the presence of compound compared to the response to agonist in the absence of compound.
The above described assay operated in two modes. In the first mode, a range of concentrations of the present compounds were added to cells, followed by a single fixed concentration of agonist. If a compound acted as a potentiator, an EC50 value for potentiation and a maximum extent of potentiation by the compound at this concentration of agonist was determined by non-linear curve fitting. In the second mode, several fixed concentrations of the present compounds were added to various wells on a plate, followed by a range of concentrations of agonist for each concentration of present compound; the EC50 values for the agonist at each concentration of compound were determined by non-linear curve fitting. A decrease in the EC50 value of the agonist with increasing concentrations of the present compounds (a leftward shift of the agonist concentration-response curve) is an indication of the degree of mGluR5 potentiation at a given concentration of the present compound. An increase in the EC50 value of the agonist with increasing concentrations of the present compounds (a rightward shift of the agonist concentration-response curve) is an indication of the degree of mGluR5 antagonism at a given concentration of the present compound. The second mode also indicates whether the present compounds also affect the maximum response to mGluR5 to agonists.
Human embryonic kidney (HEK) cells transfected with rat mGluR5 were plated in clear-bottomed, poly-D-lysine-coated assay plates in glutamate-glutamine-free medium growth and incubated overnight at 37° C. in 5% CO2. The following day, cells were loaded with 2 μM calcium indicator dye, fluo-4 AM, for 1 h at 37° C. Dye was removed and replaced with assay buffer containing 1× Hanks balanced salt solution (Invitrogen, Carlsbad, Calif.), 20 mM HEPES, and 2.5 mM probenecid, pH 7.4. Cell plates were then loaded into the Functional Drug Screening System 6000 (FDSS 6000, Hamamatsu, Japan). After establishment of a fluorescence baseline for twelve seconds, the compounds of the present invention were added to the cells, and the response in cells was measured. Five minutes later, an mGluR5 agonist (e.g., glutamate, 3,5-dihydroxyphenylglycine, or quisqualate) was added to the cells, and the response of the cells was measured during a 1 minute incubation with agonists. Typically, the effect of test compounds of the present invention was on an EC20 concentration of glutamate was measured. All test compounds were dissolved and diluted in 100% DMSO and then serially diluted into assay buffer for a 2.5× stock in 0.25% DMSO; stock compounds were then added to the assay for a final DMSO concentration of 0.1%. Calcium fluorescence measures were recorded as fold over basal fluorescence; raw data was then normalized to the maximal response to agonist. Potentiation of the agonist response of mGluR5 by the compounds in the present invention was observed as an increase in response to non-maximal concentrations of agonist (here, glutamate) in the presence of compound compared to the response to agonist in the absence of compound. […]

The mark [1] stands for this setting: Table 1, EC50 for potentiating the mGluR5 receptor, unit inferred, read-out: EC50.
Setting [2] is: HEK293, read-out: % Glu Max, maximum extent of potentiation, normalized to maximal response to glutamate, SAR tables.
The mark [3] stands for this setting: potentiation of glutamate response, HEK cells transfected with rat mGluR5, SAR tables, read-out: EC50.
The mark [4] stands for this setting: HEK293, maximum extent of potentiation, normalized to maximal response to glutamate, SAR tables, read-out: % Glu Max.

Like-named read-outs stand apart in the source and are kept apart here.

This passage reports EC50 and Emax results from US8853392B2, “Benzamide mGluR5 positive allosteric modulators and methods of making and using same” (Vanderbilt University, priority 2007, dated 2014).

T1 sequence (P31424 21-1203): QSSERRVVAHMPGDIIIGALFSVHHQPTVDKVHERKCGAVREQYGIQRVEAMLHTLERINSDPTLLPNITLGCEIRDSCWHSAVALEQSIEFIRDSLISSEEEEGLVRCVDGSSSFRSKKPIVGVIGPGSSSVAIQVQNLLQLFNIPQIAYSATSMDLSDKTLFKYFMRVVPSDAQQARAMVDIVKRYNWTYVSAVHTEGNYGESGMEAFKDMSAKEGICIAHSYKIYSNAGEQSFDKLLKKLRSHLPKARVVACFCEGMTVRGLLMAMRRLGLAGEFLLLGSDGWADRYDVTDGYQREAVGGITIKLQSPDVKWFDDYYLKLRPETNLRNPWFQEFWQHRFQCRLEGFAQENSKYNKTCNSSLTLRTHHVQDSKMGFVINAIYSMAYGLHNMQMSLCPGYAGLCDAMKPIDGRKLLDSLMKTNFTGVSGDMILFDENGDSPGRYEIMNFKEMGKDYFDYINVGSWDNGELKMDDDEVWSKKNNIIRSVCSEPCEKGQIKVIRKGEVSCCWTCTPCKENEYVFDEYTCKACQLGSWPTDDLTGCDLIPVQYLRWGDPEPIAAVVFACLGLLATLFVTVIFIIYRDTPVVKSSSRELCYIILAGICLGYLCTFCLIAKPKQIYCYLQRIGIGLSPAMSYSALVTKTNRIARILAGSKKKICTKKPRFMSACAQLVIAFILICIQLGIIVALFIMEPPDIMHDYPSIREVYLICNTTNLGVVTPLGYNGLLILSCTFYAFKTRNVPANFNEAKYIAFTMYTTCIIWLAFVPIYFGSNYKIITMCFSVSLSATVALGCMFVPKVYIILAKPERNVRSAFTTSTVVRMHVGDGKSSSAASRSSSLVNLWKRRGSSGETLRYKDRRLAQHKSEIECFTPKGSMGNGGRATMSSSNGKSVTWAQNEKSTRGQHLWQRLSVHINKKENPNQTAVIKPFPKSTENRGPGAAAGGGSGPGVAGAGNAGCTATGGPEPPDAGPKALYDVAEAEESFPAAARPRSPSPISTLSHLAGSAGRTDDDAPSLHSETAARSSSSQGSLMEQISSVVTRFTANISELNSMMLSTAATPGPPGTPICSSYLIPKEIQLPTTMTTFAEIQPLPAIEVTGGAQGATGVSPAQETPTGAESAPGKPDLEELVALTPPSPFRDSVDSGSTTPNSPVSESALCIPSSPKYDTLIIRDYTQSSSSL

A word on the EC50: it is the concentration needed to bring the measured effect to its halfway point. With `CC1CN(C(=O)c2ccc(C#Cc3ccccc3)cc2)CC(C)O1` (centres unmarked) [(2,6-dimethylmorpholino)(4-(phenylethynyl)phenyl)methanone], under setting [1], the concentration giving a half-maximal response (EC50) is 88.9 nM. The same measure, in the same setting: to `CC1CCC(NC(=O)c2ccc(C#Cc3ccccc3)cc2)CC1` (centres unmarked) [N-(4-methylcyclohexyl)-4-(phenylethynyl)benzamide] belongs 76.3 nM.

As to `N#CC1(c2ccccc2)CCN(C(=O)c2ccc(C#Cc3ccccc3)cc2)CC1` [4-phenyl-1-(4-(phenylethynyl)benzoyl)piperidine-4-carbonitrile], the EC50 (EC50, Table 1, EC50 for potentiating the mGluR5 receptor, unit inferred) amounted to 1140 nM. On to `O=C(c1ccc(C#Cc2ccccc2)cc1)N1CCN(c2ccccc2F)CC1` [(4-(2-fluorophenyl)piperazin-1-yl)(4-(phenylethynyl)phenyl)methanone], for which, under setting [1], the EC50 was 5140 nM. As to `O=C(c1ccc(C#Cc2ccccc2)cc1)N1CCC(O)(c2cccs2)CC1` [Compound 7d, (4-hydroxy-4-(thiophen-2-yl)piperidin-1-yl)(4-(phenylethynyl)phenyl)methanone], the Emax under setting [2] was found to be 95%. The EC50 was found to be 1070 nM under setting [1] and 1000 nM under setting [3]. As for `COCCCNC(=O)c1ccc(-c2nc(-c3ccc(F)cc3)no2)cc1` [4-(3-(4-fluorophenyl)-1,2,4-oxadiazol-5-yl)-N-(3-methoxypropyl)benzamide], under setting [1], the EC50 was 1120 nM. As to `O=C(c1ccc(C#Cc2cccc(F)c2)cc1)N1CC(O)C1` [Compound 20n, (4-((3-fluorophenyl)ethynyl)phenyl)(3-hydroxyazetidin-1-yl)methanone], under setting [4], the Emax came to 104%. The 50% effective concentration (EC50) stood at 73 nM under setting [1] and 59.5 nM under setting [3]. `O=C(c1ccc(C#Cc2ccccc2)cc1)N1CCC(N2CCN(c3ccncc3)CC2)CC1` [(4-(phenylethynyl)phenyl)(4-(4-(pyridin-4-yl)piperazin-1-yl)piperidin-1-yl)methanone]: the concentration for a half-maximal effect (EC50) under setting [1] is 113 nM. Regarding `Cc1cc(C#Cc2ccc(C(=O)N3CCC(O)CC3)cc2)ccc1F` [Compound 19f, (4-((4-fluoro-3-methylphenyl)ethynyl)phenyl)(4-hydroxypiperidin-1-yl)methanone], the Emax under setting [4] was found to be 76%. Further, the half-maximal effective concentration (EC50) amounted to 832 nM under setting [1] and 500 nM under setting [3]. As for `O=C(c1ccc(C#Cc2ccccc2)cc1)N1CCC(O)(c2ccc(Cl)cc2)CC1` [(4-(4-chlorophenyl)-4-hydroxypiperidin-1-yl)(4-(phenylethynyl)phenyl)methanone], under setting [1], the EC50 worked out at 6460 nM.

With `O=C(NCCc1ccc(Br)cc1)c1ccc(C#Cc2ccccc2)cc1` [N-(4-bromophenethyl)-4-(phenylethynyl)benzamide], under setting [1], the concentration giving a half-maximal response (EC50) was 237 nM. With `CN1CCN(C2CCN(C(=O)c3ccc(C#Cc4ccccc4)cc3)CC2)CC1` [(4-(4-methylpiperazin-1-yl)piperidin-1-yl)(4-(phenylethynyl)phenyl)methanone], under setting [1], the EC50 stood at 132 nM. `CC1(O)CCN(C(=O)c2ccc(C#Cc3ccc(F)cc3)cc2)CC1` [Compound 20c, (4-((4-fluorophenyl)ethynyl)phenyl)(4-hydroxy-4-methylpiperidin-1-yl)methanone]: the Emax under setting [4] was 91%. Besides, the half-maximal effective concentration (EC50) by setting is: under setting [1], 54.2 nM; under setting [3], 39.4 nM. Turning to `O=C(c1ccc(C#Cc2cccc(F)c2)cc1)N1CCOCC1` [Compound 20j, (4-((3-fluorophenyl)ethynyl)phenyl)(morpholino)methanone], the Emax under setting [4] was found to be 112%. Besides, the EC50 turned out to be 5.32 nM under setting [1] and 5.3 nM under setting [3].

As for `CC(C)C1(O)CCN(C(=O)c2ccc(C#Cc3ccccc3)cc2)CC1` [Compound 7c, (4-hydroxy-4-isopropylpiperidin-1-yl)(4-(phenylethynyl)phenyl)methanone], the Emax under setting [2] came to 89.1%. Moreover, the concentration for a half-maximal effect (EC50) under setting [1] was 1800 nM and the 50% effective concentration (EC50) under setting [3] was determined as 1770 nM. With `CCCC(C)NC1CCN(C(=O)c2ccc(C#Cc3ccccc3)cc2)CC1` (centres unmarked) [(4-(pentan-2-ylamino)piperidin-1-yl)(4-(phenylethynyl)phenyl)methanone], the concentration giving a half-maximal response (EC50) under setting [1] came out at 59.5 nM. The same measure, in the same setting: under `CC(C)CCNC(=O)c1ccc(C#Cc2ccccc2)cc1` [N-isopentyl-4-(phenylethynyl)benzamide] stands 27.3 nM.
